Entries after “also recorded” stand apart in the source; their conditions may differ. Counter-ions that a name gives are not always drawn.

A short description of this series: Salt selection screens of Formula V free base (organic solvents, aqueous, concentrated acids; XRPD). Type of series: physicochemical. Conditions: for XRPD post 1 day maturation / XRPD post 4 days maturation: HCl salt screen, HCl 1.1 equivalents. The protocol: Example 8: Salt Selection: Preparation of the hydrochloride salt was performed in the 20 solvents used for the solubility screen in order to select the optimal solvents for the salt screen. Formula V free base (ca. 10 mg) was suspended in the selected solvents (50 volumes; 500 µl) with stirring at 40°C. HCl (1.1 equivalents; […] in THF) was added, and the temperature was maintained for 30 minutes. […] The experiments were left cycling for further three days. […] Table 2. Results of HCl salt screen from 20 different solvents
Formula V free base (ca. 30 mg) was suspended in selected solvents (THF, nitromethane, acetonitrile and MEK; 50 volumes, 1.5 mL) at 50°C with stirring. The corresponding acid (1 equivalent) was added and the samples were stirred for 30 minutes, prior to ramping at 1 °C -min_1 to 25°C. The samples were placed in a shaker and subjected to heating/cooling cycles, between room temperature and 50°C, with four hours at each condition. Table 3. Input materials used for the salt screen
Further solvent (25 volumes) was added, and the suspensions were allowed to cycle for four more days. […] The samples were stored in a shaker and subjected to heating/cooling cycles, between room temperature and 50°C, with four hours at each condition for one week. […] Water (10% for MeCN, and 5% for THF, MEK and nitromethane, based on ca. 1.5 mL solvent) was added and the samples were cycled for a further 5 days. […] Table 4. XRPD results from the salt screen in acetonitrile.
An aqueous screen was performed. […] Table 11. Aqueous salt screen
The preparation of salts was conducted by dissolution in concentrated aqueous inorganic acids followed by precipitation with THF. Two procedures were performed, on 10 mg or 50 mg scale, investigating the effect of the order of addition of THF on the product produced.
Procedure A: Formula V free base (ca. 10 mg) was dissolved in the corresponding concentrated acid (50 µl) with stirring at room temperature and was added dropwise over THF (500 µl). Samples using HBr and HCl yielded solids and were shaken for 10 minutes and the solid was vacuum filtered, and dried under suction. H3PO4 yielded a solution that was subjected to heating/cooling cycles between room temperature and 50°C, four hours under each condition for 7 days. Procedure B: Formula V free base (ca. 50 mg) was dissolved in the corresponding concentrated acids (250 µl) with stirring at room temperature. THF (2.5 mL) was added dropwise to the solutions, and precipitation started. The samples were shaken for 30 minutes before being placed at 2-8°C for ca. 16 hours. HBr and HCl produced solids, which were vacuum filtered, washed with THF, dried under suction and under vacuum at 40°C for 16 hours. Table 13. Results from the salt screen from concentrated aqueous acids

Setting [1] is: salt screen from concentrated aqueous acids, Formula V free base, Procedure A.
Setting [2] is: salt screen from concentrated aqueous acids, Formula V free base, Procedure B.
[3] abbreviates: solvent 1-4-Dioxane (entry -13).
The mark [4] stands for this setting: solvent Acetonitrile (entry -04).
Setting [5] is: salts from concentrated acids, second Details column (presumably Procedure B), listed as HCl salt.
The mark [6] stands for this setting: HBr salt obtained in the salt screen, Acetonitrile.
The mark [7] stands for this setting: HBr salt obtained in the salt screen, THF.
Setting [8] is: salts from concentrated acids, second Details column (presumably Procedure B), listed as HBr salt.

For `O=P(O)(O)O` [Compound H3PO4], the Maturation result under setting [1] is “Oil”. The “Observations after adda of THF” value was “Solution” under setting [1] and “Oil” under setting [2].
For `Br` [HBr], the “Observations after adda of THF” value is listed as “While suspension” under setting [1] and “White suspension” under setting [2].
As for `Cl` [HCl], the “Observations after adda of THF” value runs as follows: under setting [1], “White suspension”; under setting [2], “White suspension”.
As for `Nc1nc2cc(-c3ccc4ncc(C(=O)N5CCOCC5)n4c3)ccc2o1` [compound of Formula V, (6-(2-aminobenzo[d]oxazol-5-yl)imidazo[1,2-a]pyridin-3-yl)(morpholino)methanone], the “XRPD post 1 day maturation” value runs as follows: under setting [3], “New peaks free base (loss of crystallinity)”; (solvent Acetone (entry -05)) “New peaks + free base”; under setting [4], “New peaks + free base”; (solvent BuOAc (entry -16)) “New peaks + free base (loss of crystallinity)”; (solvent DCM (entry -17)) “New peaks + free base (loss of crystallinity)”; (solvent DIPE (entry -10)) “New peaks + free base”. For the same molecule, the “XRPD post 1 day maturation” value by setting is: (solvent EtOAc (entry -08)) “New peaks + free base (loss of crystallinity)”; (solvent Ethanol (entry -02)) “New peaks + free base (loss of crystallinity)”; (solvent IPA (entry -03)) “New peaks + free base (loss of crystallinity)”; (solvent IPAc (entry -09)) “New peaks + free base (loss of crystallinity)”; (solvent MEK (entry -06)) “New peaks + free base”; (solvent MIBK (entry -07)) “New peaks + free base”. For the same molecule, the “XRPD post 1 day maturation” value (solvent MeNO2 (entry -14)) was “HCl Pattern I”; the “XRPD post 1 day maturation” value (solvent Methanol (entry -01)) is recorded as “New peaks + free base (loss of crystallinity)”; the “XRPD post 1 day maturation” value (solvent TBME (entry -11)) is recorded as “New peaks + free base”; the “XRPD post 1 day maturation” value (solvent THF (entry -12)) is reported as “New peaks + free base (loss of crystallinity)”; the “XRPD post 1 day maturation” value (solvent Toluene (entry -15)) is “New peaks + free base”; the “XRPD post 1 day maturation” value (solvent tBuOH (entry -18)) is on record as “New peaks + free base”. Further, the “XRPD post 4 days maturation” value by setting is: under setting [3], “Amorphous”; (solvent Acetone (entry -05)) “Free base”; under setting [4], “HCl Pattern 1”; (solvent BuOAc (entry -16)) “New peaks + free base (loss of crystallinity)”; (solvent DCM (entry -17)) “New peaks + free base (loss of crystallinity)”; (solvent DIPE (entry -10)) “New peaks + free base”. For the same molecule, the “XRPD post 4 days maturation” value runs as follows: (solvent EtOAc (entry -08)) “New peaks + free base”; (solvent Ethanol (entry -02)) “Amorphous”; (solvent IPA (entry -03)) “Amorphous”; (solvent IPAc (entry -09)) “New peaks + free base”; (solvent MEK (entry -06)) “HCl Pattern 1”; (solvent MIBK (entry -07)) “New peaks + free base”. Also, the “XRPD post 4 days maturation” value (solvent Methanol (entry -01)) is recorded as “Loss of crystallinity”; the “XRPD post 4 days maturation” value (solvent TBME (entry -11)) is recorded as “New peaks + free base”; the “XRPD post 4 days maturation” value (solvent THF (entry -12)) is “HCl Pattern 1”; the “XRPD post 4 days maturation” value (solvent Toluene (entry -15)) is “New peaks + free base”; the “XRPD post 4 days maturation” value (solvent tBuOH (entry -18)) was “Free base”.
Take `Nc1nc2cc(-c3ccc4ncc(C(=O)N5CCOCC5)n4c3)ccc2o1` [{drug5a}, (6-(2-aminobenzo[d]oxazol-5-yl)imidazo[1,2-a]pyridin-3-yl)(morpholino)methanone]: the “Ion Chromatography” value (HCl salt from nitromethane) is 0.8 eqs Cl; the “Ion Chromatography” value (HCl salts from concentrated acids, first Details column (presumably Procedure A)) worked out at 1.6 eqs Cl; the “Ion Chromatography” value (HCl salts from concentrated acids, second Details column (presumably Procedure B)) amounted to 1.7 eqs Cl. The “XRPD (vacuum dried)” value is listed as “HCl Pattern 1” (HCl salt from nitromethane) and “HCl Pattern 2; also recorded: Slight changes, more peaks” under setting [5]. The “XRPD (air dried)” value is, setting by setting: (salts from concentrated acids, first Details column (presumably Procedure A), listed as HCl salt) “HCl Pattern 2”; under setting [5], “HCl Pattern 2”.
For `Nc1nc2cc(-c3ccc4ncc(C(=O)N5CCOCC5)n4c3)ccc2o1` [{drug5b}, (6-(2-aminobenzo[d]oxazol-5-yl)imidazo[1,2-a]pyridin-3-yl)(morpholino)methanone], the “Ion Chromatography” value by setting is: (HBr salt from aqueous screen) 0.8 eqs Cl; under setting [6], 1.1 eqs C 1; under setting [7], 0.8 eqs Cl; (HBr salts from concentrated acids, first Details column (presumably Procedure A)) 1.7 eqs Br; (HBr salts from concentrated acids, second Details column (presumably Procedure B)) 1.8 eqs Br. Besides, the “XRPD (vacuum dried)” value is, setting by setting: (HBr salt from aqueous screen) “HBr Pattern 3”; under setting [6], “HBr Pattern 1, slight evidence of FB”; (HBr salt obtained in the salt screen, Nitromethane) “HBr Pattern 1, slight evidence of FB”; under setting [7], “HBr Pattern 1”; under setting [8], “HBr Pattern 4; also recorded: Slight changes, more peaks”. Moreover, the “XRPD (air dried)” value is listed as “HBr Pattern 2” (salts from concentrated acids, first Details column (presumably Procedure A), listed as HBr salt) and “HBr Pattern 4” under setting [8].

The record behind these values is patent publication EP2792360A1, “(1aR,12bS)-8-cyclohexyl-11-fluoro-N-((1-methylcyclopropyl)sulfonyl)-1a-((3-methyl-3,8-diazabicyclo[3.2.1]oct-8-yl)carbonyl)-1,1a,2,2b-tetrahydrocyclopropa[d]indolo[2,1-a][2]benzazepine-5-carboxamide for use in treating HCV” (IP Gesellschaft für Management mbH, priority 2013, dated 2014).
